Key:
[1] = biological target: T1, 5-HT2B (Homo sapiens, UniProt P41595); assay: In vitro radioligand binding assay, 5-HT2B, [125I](±)DOI; set-up: concentration or dose not given beside the values; conditions: human recombinant (CHO cells)
T1 construct: expressed in transfected cells; host or cells: CHO cells
Description: (§1) Certain compounds were tested by in vitro binding assays using standard procedures. […] These receptors and assays are well known to those skilled in the art, as exemplified by the following: Abramovitz, M. et al. (2000), Biochem. Biophys. Acta., 1483: 285-293 (EP4, IP (PGI2)); Aharony, D. et al. (1993), Mol. Pharmacol., 44: 356-363 (NK2); Ardati, A. et al. (1997), Mol. Pharmacol., 51: 816-824 (NOP (ORL1)); Bignon, E. et al. (1999), J. Pharmacol. Exp. Ther. 289: 742-751 (CCK1 (CCKA)); Bloomquist, B. T. et al. (1998), Biochem. Biophys. Res. Commun., 243: 474-479 (GAL2); Brockhaus, M. et al. (1990), Proc. Natl. Acad. Sci. U.S.A., 87: 3127-3131 (TNF-α); Brown, G. B. (1986), J. Neurosci., 6: 2064-2070 (Na+ channel (site 2)); Buchan, K. W. et al. (1994), Brit. J. Pharmacol., 112: 1251-1257 (ETA); Cesura, A. M. et al. (1990), Mol. Pharmacol., 37: 358-366 (MAO-A); Choi, D. S. et al. (1994), FEBS Lett., 352: 393-399 (5-HT2B); Clark, A. F. et al. (1996), Invest. Ophtalmol. Vis. Sci., 37: 805-813 (GR); Couvineau, A. et al. (1985), Biochem. J., 231: 139-143 (VPAC1 (VIP1)); Dorje, F. et al. (1991), J. Pharmacol. Exp. Ther., 256: 727-733 (M1, M2, M3, M4); Ferry, G. et al. (2001), Eur. J. Pharmacol., 417: 77-89 (PPARγ); Fuchs, S. et al. (2001), Mol. Med., 7: 115-124 (ETB); Fuhlendorff, J. et al. (1990), Proc. Natl. Acad. Sci. U.S.A., 87: 182-186 (Y2); Ganapathy M E. et al. (1999), J. Pharmacol. Exp. Ther., 289: 251-260 (sigma (non-selective)); Gopalakrishnan, M. et al. (1996), J. Pharmacol. Exp. Ther., 276: 289-297 (N neuronal α4β2); Greengrass, P. and Bremner, R. (1979), Eur. J. Pharmacol., 55: 323-326 (α1 (non-selective)); Grandy, D. K. et al. (1989), Proc. Natl. Acad. Sci. U.S.A., 86: 9762-9766 (D25); Guard, S. et al. (1993), Eur. J. Pharmacol., 240:177-184 (BB (non-selective)); Heuillet, E. et al. (1993), J. Neurochem., 60: 868-876 (NK1, P2X); Hope, A. G. et al. (1996), Brit. J. Pharmacol., 118: 1237-1245 (5-HT3); Hoyer, D. et al. (1985), Eur. J. Pharmacol., 118: 1-12 (5-HT1B); Hugues, M. et al. (1982), J. Biol. Chem., 257: 2762-2769 (5-HT2A, SKCa channel); Joseph, S. S. et al. (2004), Naun.-Sch. Arch. Pharm., 369: 525-532 (β2); Le, M. T. et al. (2005), Eur. J. Pharmacol., 513: 35-45 (AT1); Le Fur, G. et al. (1983), Life Sci., 33: 449-457) (BZD (peripheral); Lee, Y. M. et al. (1993), J. Biol. Chem., 268: 8164-8169 (CCK2 (CCKB)); Leurs, R. et al. (1994), Brit. J. Pharmacol., 112: 847-854 (H2); Levin, M. C. et al. (2002), J. Biol. Chem., 277: 30429-30435 (11); Lewin, A. H. et al. (1989), Mol. Pharmacol., 35: 189-194 (Cl− channel (GABA-gated)); Lukas, R. J. (1986), J. Neurochem., 46: 1936-1941 (N muscle-type); Luthin, D. R. et al. (1995), Mol. Pharmacol., 47: 307-313; (A2A); Mackenzie, R. G. et al. (1994), Eur. J. Pharmacol., 266: 79-85 (D3); Mulheron, J. G. et al. (1994), J. Biol. Chem., 269: 12954-12962 (5-HT1A); Meng, F. et al. (1993), Proc. Natl. Acad. Sci. U.S.A., 90: 9954-9958 (κ (KOP)); Monsma, F. J. et al. (1993), Mol. Pharmacol., 43: 320-327 (5-HT6); Neote, K. et al. (1993), Cell, 72: 415-425 (CCR1); Pacholczyk, T. et al. (1991), Nature, 350: 350-354 (sst (non-selective, norepinephrine transporter)); Peralta, E. G. et al. (1987), Embo. J., 6: 3923-3929 (M3); Pristupa, Z. B. et al. (1994), Mol. Pharmacol., 45: 125-135 (dopamine transporter); Pruneau, D. et al. (1998), Brit. J. Pharmacol., 125: 365-372 (B2); Rees, S. et al. (1994), FEBS Lett., 355: 242-246 (5-HT5a); Reynolds, I. J. et al. (1986), J. Pharmacol. Exp. Ther., 237: 731-738 (Ca2+ channel (L, verapamil site)); Rinaldi-Carmona, M. et al. (1996), J. Pharmacol. Exp. Ther., 278: 871-878 (CB1); Salvatore, C. A. et al. (1993), Proc. Natl. Acad. Sci. U.S.A., 90: 10365-10369 (A3); Sarau, H. M. et al. (1997), J. Pharmacol. Exp. Ther., 281: 1303-1311 (NK3); Schioth, H. B. et al. (1997), Neuropeptides, 31: 565-571 (MC4); Sharples, C. […]

[2] = test system: α1 (non-selective); assay: In vitro radioligand binding assay, α1 (non-selective), [3H]prazosin; set-up: concentration or dose not given beside the values; conditions: rat cerebral cortex membranes
Description: as §1

T1 sequence (P41595 whole entry): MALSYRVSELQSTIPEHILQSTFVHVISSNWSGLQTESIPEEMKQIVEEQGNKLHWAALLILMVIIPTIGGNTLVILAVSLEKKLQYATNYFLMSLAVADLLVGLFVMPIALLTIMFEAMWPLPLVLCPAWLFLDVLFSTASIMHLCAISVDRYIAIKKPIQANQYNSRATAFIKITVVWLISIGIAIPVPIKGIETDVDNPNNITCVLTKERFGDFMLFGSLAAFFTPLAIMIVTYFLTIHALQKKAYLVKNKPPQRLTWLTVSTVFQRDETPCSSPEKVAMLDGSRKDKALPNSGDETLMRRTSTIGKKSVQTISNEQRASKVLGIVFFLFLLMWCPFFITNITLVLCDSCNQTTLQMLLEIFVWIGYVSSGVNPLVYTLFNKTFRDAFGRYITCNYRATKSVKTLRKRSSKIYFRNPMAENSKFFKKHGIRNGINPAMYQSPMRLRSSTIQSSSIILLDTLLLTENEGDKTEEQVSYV

Row | SMILES | 5HT2b percent inhibition of specific binding [1] [%] | α1 percent inhibition of specific binding [2] [%]
1 | Fc1cccc2c1[C@H]([C@@H]1CCCN1)OCC2 [Compound I-1, (S)-2-((R)-8-fluoroisochroman-1-yl)pyrrolidine] | 79 | 55
2 | Fc1ccc2c(c1)[C@H]([C@@H]1CCCN1)OCC2 [Compound I-5, (2S)-2-((R)-7-fluoroisochroman-1-yl)pyrrolidine] | 72 | 59
3 | Fc1ccc2c(c1)CCO[C@H]2[C@@H]1CCCN1 [Compound I-9, (S)-2-((R)-6-fluoroisochroman-1-yl)pyrrolidine] | 76 | 73
4 | Clc1ccc2c(c1)[C@H]([C@@H]1CCCN1)OCC2 [Compound I-29, (S)-2-((R)-7-chloroisochroman-1-yl)pyrrolidine] | 80 | 69
5 | Fc1cccc2c1[C@H]([C@@H]1CCN1)OCC2 [Compound I-83, (S)-2-((R)-8-fluoroisochroman-1-yl)azetidine] | 83 | 
6 | Fc1ccc2c(c1)CCO[C@H]2[C@@H]1CCN1 [Compound I-90, (S)-2-((R)-6-fluoroisochroman-1-yl)azetidine] | 77 | 64
7 | Fc1cccc2c1CCO[C@@H]2[C@@H]1CCN1 [Compound I-94, (S)-2-((S)-5-fluoroisochroman-1-yl)azetidine] | 76 | 72
8 | Fc1cccc2c1CCO[C@@H]2[C@H]1CCN1 [Compound I-96, (R)-2-((S)-5-fluoroisochroman-1-yl)azetidine] | 58 | 81

Source: patent US10336732B2, “1-heterocyclyl isochromanyl compounds and analogs for treating CNS disorders” (Sunovion Pharmaceuticals Inc., priority 2015, dated 2019)
